One data set concerns hyaluronan export. Nature of the data set: Assay for hyaluronan transport/export inhibitors in fibroblast cell culture (hyaluronan in culture medium by ELISA). The class given is cell-based. To be noted: 2 days at 37° C. As for the experimental part: Trypsinised fibroblasts were suspended in Dulbeccós medium at 10^5 cells/ml and 100 μl aliquots were transferred to a 96 well microtiter plate. The first row received 200 μl of the suspension and 20 μl of the inhibitors of the invention dissolved in phosphate buffered saline at concentrations of 4 mM. A serial dilution of the inhibitors was established by transfer of 100 μl aliquots from the first row to the following rows. All experiments were performed in duplicates. […] The cells were incubated for 2 days at 37° C. and aliquots (5 and 20 μl) of the culture medium were used for measurement of the hyaluronan concentration in the cell culture medium by an ELISA [125]. Briefly, the wells of a 96 well Covalink-NH-microtiter plate (NUNC) were coated with 100 μl of a mixture of […] of hyaluronan (Healon®), 9.2 μg/ml of N-Hydroxysuccinimide-3-sulfonic acid and 615 μl/ml of 1-ethyl-3-(3-dimethylaminopropyl)-carbodiimide for 2 hours at room temperature and overnight at 4° C. The wells were washed three times with 2 M NaCl, 41 mM MgSO4, 0.05% Tween-20 in 50 mM phosphate buffered saline pH 7.2 (buffer A) and once with 2 M NaCl, 41 mM MgSO4, in phosphate buffered saline pH 7.2. Additional binding sites were blocked by incubation with 300 μl of 0.5% bovine serum albumin in phosphate buffered saline for 30 min at 37° C. Calibration of the assay was performed with standard concentrations of hyaluronan ranging from 15 ng/ml to 6000 ng/ml in equal volumes of culture medium as used for measurement of the cellular supernatants. A solution (50 μl) of the biotinylated hyaluronan binding fragment of aggrecan (Calbiochem) in 1.5 M NaCl, 0.3 M guanidinium hydrochloride, 0.08% bovine serum albumin 0.02% NaN3 25 mM phosphate buffer pH 7.0 was preincubated with 50 μl of the standard hyaluronan solutions or cellular supernatants for 1 hour at 37° C. The mixtures were transferred to the hyaluronan-coated test plate and incubated for 1 hour at 37° C. The microtiter plate was washed three times with buffer A and incubated with 100 μl/well of a solution of streptavidin-horseraddish-peroxidase (Amersham) at a dilution of 1:100 in phosphate buffered saline, 0.1% Tween-20 for 30 min at room temperature. The plate was washed five times with buffer A and the colour was developed by incubation with a 100 μl/well of a solution of 5 mg o-phenylenediamine and 5 μl 30% H2O2 in 10 ml of 0.1 M citrate-phosphate buffer pH 5.3 for 25 min at room temperature. The adsorption was read at 490 nm. The concentrations in the samples were calculated from a logarithmic regression curve of the hyaluronan standard solutions.

Data set [1] can be described thus: pKa of the acidic moiety (stated in design rationale, no method). The class given is physicochemical. As to conditions: approximate values given in design rationale; no method described; read-out: pKa of the carboxylic moiety or its replacement.
The subject of data set [2] is II-1α activated bovine cartilage explants. As to conditions: ref [14]; cited from earlier work.

As to `CC(=O)Nc1ccccc1Oc1cccc(O)c1C(=O)O` [Compound 86], the “IC50 for hyaluronan export” value in the data set with hyaluronan export was “no inhibitory activity”. For the same compound, the pKa in data set [1] is about 3.

`CC(=O)Nc1c(O)cc(O)cc1Oc1cccc(N(C)C)c1C(=O)O` [Compound 98]: in the data set with hyaluronan export (Fibroblast, 48 h), the half-inhibitory concentration (IC50) came to 200 µM.

In turn, `CC(=O)Nc1c(O)cc(O)cc1Oc1ccc(NC/C=C/c2ccccc2)cc1C(=O)O` [Compound 96] displayed an IC50 with hyaluronan export (Fibroblast, 48 h) of 10 µM.

In the data set with hyaluronan export (Fibroblast, 48 h), `CC(=O)Nc1c(O)cc(O)cc1Oc1ccc(Cl)cc1S(=O)(=O)O` [Compound 99] gave an IC50 of about 80 µM. For the same compound, in data set [1], the pKa was about 1.

In the case of `CCCOc1ccccc1-c1nc2nn[nH]c2c(=O)[nH]1` [zaprinast], in data set [2], the “infiltration of degrading enzymes” value is reported as “reduced”; the “proteoglycan content and collagen degradation” value is “normalized”.

As to `CC(=O)Nc1c(O)cccc1Oc1ccccc1C(=O)NO` [Compound 97], the IC50 in the data set with hyaluronan export (listed as No. 97) was found to be 30 µM. In data set [1], the pKa is about 8.

The record behind these values is patent US20110245335A1, “NEW INHIBITORS FOR TREATING DISEASES ASSOCIATED WITH AN EXCESS TRANSPORT OF HYALURONAN” (priority 2008, published 2011).
